The values below come from patent publication US20100093811A1 (priority 2007, published 2010).

The term IC50 denotes the concentration that inhibits the measured activity by half. Usually IC95 stands for the concentration at which the effect reaches the 95% level.

SMILES strings stand for the structures. Like-named read-outs stand apart in the source and are kept apart here.

Assay [1] has as its target wild-type HIV-1 protease (Human immunodeficiency virus type 1 group M subtype B, UniProt P04585). Briefly: Assay for inhibition of microbial expressed HIV protease. It counts as biochemical. The procedure, abridged:
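Inhibition taken from HPLC (C18) product peak areas after phosphoric acid quench. Reaction: 440 micromolar Val-Ser-Gln-Asn-(betanapthyl)Ala-Pro-Ile-Val peptide, 5 pM E. coli-made protease, 1 h at 30° C, following 30 min room-temperature inhibitor preincubation in pH 5.5 acetate/NaCl/BSA buffer.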

In assay [2] the test system is acute HIV infection of T-lymphoid cells. Kind of assay: Assay for inhibition of HIV replication (spread assay). The format is cell-based, HIV-1. The method, then: • Assay for Inhibition of HIV Replication
Assays for the inhibition of acute HIV infection of T-lymphoid cells were conducted in accordance with Vacca, J. P. et al., Proc. Natl. Acad. Sci. USA 1994, 91: 4096.

Where [3] appears, read: wild-type HIV-1 protease expressed in E. coli, peptide substrate, pH 5.5, read-out: Enzyme Inhibition - IC50.
[4] abbreviates: Human immunodeficiency virus 1, T-lymphoid, read-out: Spread - IC95.

Take `COC(=O)N[C@H](C(=O)N[C@@H](C)CCC[C@@H](CO)N(CCCF)S(=O)(=O)c1ccc(CO)cc1)C(c1ccccc1)c1ccccc1` [Example G14, N-[(1S,5S)-5-((3-fluoropropyl){[4-(hydroxymethyl)phenyl]sulfonyl}amino)-6-hydroxy-1-methythexyl]-Nα-(methoxycarbonyl)-β-phenyl-L-phenylalaninamide]: in assay [1] (setting [3]), the IC50 amounted to 0.01 nM. Further, in assay [2] (setting [4]), the IC95 is 16 nM.
On the same counts, the results for `COC(=O)N[C@@H](Cc1ccccc1Br)C(=O)N[C@@H](C)CCC[C@@H](CO)N(C(C)C)S(=O)(=O)c1ccc(N)cc1` [Example G15, N-{(1S,SS)-5-[[(4-aminophenyl)sulfonyl](isopropyl)amino]-6-hydroxy-1-methylhexyl}-2-bromo-Nα-(methoxycarbonyl)-L-phenylalaninamide] are 0.584 nM and 77 nM.
`COC(=O)N[C@H](C(=O)N[C@@H](C)CCC[C@@H](CO)N(CC(C)C)S(=O)(=O)c1ccc(CO)cc1)C(c1ccccc1)c1ccccc1` [Example G16, N-{(1S,5S)-6-hydroxy-5-[{[4-(hydroxymethyl)phenyl]sulfonyl}(isobutyl)amino]-1-methylhexyl}-Nα-(methoxycarbonyl)-β-phenyl-L-phenylalaninamide]: in assay [1] (setting [3]), the IC50 amounted to 0.01 nM. In addition, the IC95 in assay [2] (setting [4]) worked out at 8 nM.
`COC(=O)N[C@H](C(=O)N[C@@H](C)CCC[C@@H](CO)N(C1CCC1)S(=O)(=O)c1ccc(CO)cc1)C(c1ccccc1)c1ccccc1` [Example G17, N-[(1S,5S)-5-(cyclobutyl{[4-(hydroxymethyl)phenyl]sulfonyl}amino)-6-hydroxy-1-methylhexyl]-Nα-(methoxycarbonyl)-β-phenyl-L-phenylalaninamide]: the IC50 in assay [1] (setting [3]) was 0.077 nM. In addition, in assay [2] (setting [4]), the IC95 is 137 nM.
As for `CC[C@@H](CCC[C@@H](CO)N(C(C)C)S(=O)(=O)c1ccc(N)cc1)NC(=O)[C@@H](NC(=O)OC)C(c1ccccc1)c1ccccc1` [Example G18, N-{(1S,5S)-5-[[(4-aminophenyl)sulfonyl](isopropyl)amino]-1-ethyl-6-hydroxyhexyl}-Nα-(methoxycarbonyl)-β-phenyl-L-phenylalaninamide], in assay [1] (setting [3]), the IC50 is 0.755 nM. In assay [2] (setting [4]), the IC95 was determined as 199 nM.
In the case of `CC[C@@H](CCC[C@@H](CO)N(C(C)C)S(=O)(=O)c1ccc(CO)cc1)NC(=O)[C@@H](NC(=O)OC)C(c1ccccc1)c1ccccc1` [Example G19, N-{(1S,5S)-1-ethyl-6-hydroxy-5-[{[4-(hydroxymethyl)phenyl]sulfonyl}(isopropyl)amino]hexyl}-Nα-(methoxycarbonyl)-β-phenyl-L-phenylalaninamide], the IC50 in assay [1] (setting [3]) is 0.076 nM. Besides, the IC95 in assay [2] (setting [4]) was found to be 43 nM.
Take `CCCN([C@H](CO)CCC[C@@H](NC(=O)[C@@H](NC(=O)OC)C(c1ccccc1)c1ccccc1)C(F)(F)F)S(=O)(=O)c1ccc(N)cc1` [Example H1, N-[(1R,5S)-5-[[(4-aminophenyl)sulfonyl](propyl)amino]-6-hydroxy-1-(trifluoromethyl)hexyl]-Nα-(methoxycarbonyl)-β-phenyl-L-phenylalaninamide]: in assay [1] (setting [3]), the IC50 turned out to be 0.022 nM. In addition, the IC95 in assay [2] (Human immunodeficiency virus 1, T-lymphoid, read-out: Spread - IC95 (nM)) is 14 nM.
In the case of `COC(=O)N[C@H](C(=O)N[C@H](CCC[C@@H](CO)N(CCC(C)C)S(=O)(=O)c1ccc(N)cc1)C(F)(F)F)C(c1ccccc1)c1ccccc1` [Example H2, N-[(1R,5S)-5-[[(4-aminophenyl)sulfonyl](3-methylbutyl)amino]-6-hydroxy-1-(trifluoromethyl)hexyl]-Nα-(methoxycarbonyl)-β-phenyl-L-phenylalaninamide], 0.01 nM corresponded to half-maximal inhibition in assay [1] (IC50). Moreover, the IC95 in assay [2] (setting [4]) came out at 4 nM.
Regarding `COC(=O)N[C@H](C(=O)N[C@H](CCC[C@@H](CO)N(C(C)C)S(=O)(=O)c1ccc(N)cc1)C(F)(F)F)C(c1ccccc1)c1ccccc1` [Example H3, N-[(1R,55)-5-[[(4-aminophenyl)sulfonyl](isopropyl)amino]-6-hydroxy-1-(trifluoromethyl)hexyl]-Nα-(methoxycarbonyl)-β-phenyl-L-phenylalaninamide], the IC50 in assay [1] (setting [3]) came out at 0.076 nM. Besides, in assay [2] (inhibition of HIV-1 replication, 10% FBS, read-out: Spread - IC95), the IC95 was determined as 18 nM.
As to `CCN([C@H](CO)CCC[C@@H](NC(=O)[C@@H](NC(=O)OC)C(c1ccccc1)c1ccccc1)C(F)(F)F)S(=O)(=O)c1ccc(N)cc1` [Example H4, N-[(1R,5S)-5-[[(4-aminophenyl)sulfonyl](ethyl)amino]-6-hydroxy-1-(trifluoromethyl)hexyl]-Nα-(methoxycarbonyl)-β-phenyl-L-phenylalaninamide], the IC50 in assay [1] came to 0.173 nM. Also, the IC95 in assay [2] (setting [4]) was found to be 29 nM.
For the compound `COC(=O)N[C@H](C(=O)N[C@H](CCC[C@@H](CO)N(CC(C)C)S(=O)(=O)c1ccc(N)cc1)C(F)(F)F)C(c1ccccc1)c1ccccc1` [Example H5, N-[(1R,5S)-5-[[(4-aminophenyl)sulfonyl](isobutyl)amino]-6-hydroxy-1-(trifluoromethyl)hexyl]-Nα-(methoxycarbonyl)-β-phenyl-L-phenylalaninamide], 0.02 nM corresponded to half-maximal inhibition in assay [1] (IC50). Also, the IC95 in assay [2] (setting [4]) was found to be 7 nM.
The compound `COC(=O)N[C@H](C(=O)N[C@H](CCC[C@@H](CO)N(C)S(=O)(=O)c1ccc(N)cc1)C(F)(F)F)C(c1ccccc1)c1ccccc1` [Example H6, N-[(1R,5S)-5-[[(4-aminophenyl)sulfonyl](methyl)amino]-6-hydroxy-1-(trifluoromethyl)hexyl]-Nα-(methoxycarbonyl)-β-phenyl-L-phenylalaninamide] registered an IC50 in assay [1] of 1.01 nM. Further, the IC95 in assay [2] (setting [4]) is 138 nM.
With `COC(=O)N[C@@H](Cc1ccccc1Cl)C(=O)N[C@H](CCC[C@@H](CO)N(CC(C)C)S(=O)(=O)c1ccc(CO)cc1)C1CC1` [Example I1, 2-chloro-N-{(1R,5S)-1-cyclopropyl-6-hydroxy-5-[{[4-(hydroxymethyl)phenyl]sulfonyl}-(isobutyl)amino]hexyl}-Nα-(methoxycarbonyl)-L-phenylalaninamide], the IC50 in assay [1] (setting [3]) stood at 0.634 nM. Moreover, in assay [2] (setting [4]), the concentration for an effect of 95% (IC95) was found to be 155 nM.
With `COC(=O)N[C@@H](Cc1ccccc1Cl)C(=O)N[C@H](CCC[C@@H](CO)N(C(C)C)S(=O)(=O)c1ccc(CO)cc1)C1CC1` [Example I2, 2-chloro-N-{(1R,5S)-1-cyclopropyl-6-hydroxy-5-[{[4-(hydroxymethyl)phenyl]sulfonyl}(isopropyl)amino]hexyl}-Nα-(methoxycarbonyl)-L-phenylalaninamide], in assay [1] (setting [3]), the IC50 is 2.25 nM. The IC95 in assay [2] (setting [4]) was determined as 422 nM.
`COC(=O)N[C@H](C(=O)N[C@H](CCC[C@@H](CO)N(C(C)C)S(=O)(=O)c1ccc(CO)cc1)C1CC1)C(c1ccccc1)c1ccccc1` [Example I3, N-{(1R,5S)-1-cyclopropyl-6-hydroxy-5-[{[4-(hydroxymethyl)phenyl]sulfonyl}(isopropyl)amino]hexyl}-Nα-(methoxycarbonyl)-β-phenyl-L-phenylalaninamide]: in assay [1] (setting [3]), the IC50 came out at 0.134 nM. The concentration for an effect of 95% (IC95) in assay [2] (setting [4]) came to 50 nM.
In the case of `CCCN([C@H](CO)CCC[C@@H](NC(=O)[C@@H](NC(=O)OC)C(c1ccccc1)c1ccccc1)C1CC1)S(=O)(=O)c1ccc(CO)cc1` [Example I4, N-{(1R,5S)-1-cyclopropyl-6-hydroxy-5-[{[4-(hydroxymethyl)phenyl]sulfonyl}(propyl)amino]hexyl}-Nα-(methoxycarbonyl)-β-phenyl-L-phenylalaninamide], the 50% inhibitory concentration (IC50) in assay [1] (setting [3]) is 0.058 nM. In addition, the IC95 in assay [2] (setting [4]) was determined as 29 nM.
Take `CCN([C@H](CO)CCC[C@@H](NC(=O)[C@@H](NC(=O)OC)C(c1ccccc1)c1ccccc1)C1CC1)S(=O)(=O)c1ccc(CO)cc1` [Example I5, N-[(1R,5S)-1-cyclopropyl-5-(ethyl{[4-(hydroxymethyl)phenyl]sulfonyl}amino)-6-hydroxyhexyl]-Nα-(methoxycarbonyl)-β-phenyl-L-phenylalaninamide]: the IC50 in assay [1] (setting [3]) was determined as 0.011 nM. For the same compound, the IC95 in assay [2] (setting [4]) is 85 nM.
Consider `COC(=O)N[C@H](C(=O)N[C@H](CCC[C@@H](CO)N(C)S(=O)(=O)c1ccc(CO)cc1)C1CC1)C(c1ccccc1)c1ccccc1` [Example I6, N-{(1R,5S)-1-cyclopropyl-6-hydroxy-5-[{[4-(hydroxymethyl)phenyl]sulfonyl}(methyl)amino]hexyl}-Nα-(methoxycarbonyl)-β-phenyl-L-phenylalaninamide], for which, in assay [1] (setting [3]), the IC50 was found to be 1.03 nM. For the same compound, the IC95 in assay [2] (setting [4]) amounted to 187 nM.
Take `CCCN([C@H](CO)CCC[C@@H](NC(=O)[C@@H](NC(=O)OC)C(c1ccccc1)c1ccccc1)C1CC1)S(=O)(=O)c1ccc(N)cc1` [Example I7, N-{(1R,5S)-5-[[(4-aminophenyl)sulfonyl](propyl)amino]-1-cyclopropyl-6-hydroxyhexyl}-Nα-(methoxycarbonyl)-β-phenyl-L-phenylalaninamide]: in assay [1] (setting [3]), the IC50 was 0.206 nM. The IC95 in assay [2] (setting [4]) amounted to 43 nM.
Consider `COC(=O)N[C@H](C(=O)N[C@H](CCC[C@@H](CO)N(C(C)C)S(=O)(=O)c1ccc(N)cc1)C1CC1)C(c1ccccc1)c1ccccc1` [Example I8, N-{(1R,5S)-5-[[(4-aminophenyl)sulfonyl](isopropyl)amino]-1-cyclopropyl-6-hydroxyhexyl}-Nα-(methoxycarbonyl)-β-phenyl-L-phenylalaninamide], for which the IC50 in assay [1] (setting [3]) turned out to be 0.346 nM. Moreover, the IC95 in assay [2] (setting [4]) was found to be 43 nM.
Regarding `COC(=O)N[C@H](C(=O)N[C@H](CCC[C@@H](CO)N(C)S(=O)(=O)c1ccc(N)cc1)C1CC1)C(c1ccccc1)c1ccccc1` [Example I9, N-{(1R,5S)-5-[[(4-aminophenyl)sulfonyl](methyl)amino]-1-cyclopropyl-6-hydroxyhexyl}-Nα-(methoxycarbonyl)-β-phenyl-L-phenylalaninamide], the IC50 in assay [1] (setting [3]) amounted to 3.2 nM. Besides, in assay [2] (setting [4]), the IC95 turned out to be 323 nM.
